Data reported in patent EP0529622A2, “Cloning and characterization of a cardiac adenylyl cyclase” (AMERICAN CYANAMID COMPANY, priority 1991, dated 1993).

Tests used:
[1] = target: T1, type V adenylyl cyclase (Canis lupus familiaris, UniProt P30803); assay: P-site inhibition of adenylyl cyclase activity by adenosine and its analogues, transfected CMT membranes; type: biochemical, canine; conditions: 0-100 µM; membranes preincubated with 5 mM Mn²⁺ and 100 µM forskolin for 10 minutes
T1 construct: expressed in transfected cells; host or cells: CMT cells, crude membrane preparation
Procedure: Figure 7 depicts the effect of adenosine and its analogues on type V adenylyl cyclase activity. Membrane (transfected with pcDNA112-72 or control) are preincubated with 5 mM Mn²⁺ and 100 µM forskolin for 10 minutes prior to the assay. […] Each point in the average of triplicate determinations.
Another feature of adenylyl cyclase is its inhibition through an allosteric purine binding or P-site (6). […] This is more apparent when the enzyme is first activated by the addition of Mn²⁺, forskolin. The order of potency was as follows: 2'-deoxy-3'-AMD>3'-AMP>2'-deoxyadenosine>adenosine (Figure 7).

[2] = target: T2, cardiac adenylyl cyclase (Canis lupus familiaris, UniProt P30803); assay: Adenylyl cyclase activity assay (method of Salomon), crude membranes of CMT cells transfected with pcDNA113-72; type: biochemical, canine; conditions: for fold more stimulation than the control: transfected vs untransfected control, 100 µM forskolin
T2 construct: The expression vector containing the full length cDNA is designated pcDNA113-72; expressed in transfected cells; host or cells: monkey kidney CMT cells (COS derivative), transient transfection with pcDNA113-72, crude membrane preparation
Description: Biochemical characterization of the protein product encoded by this cDNA is obtained using a CMT cell-expression system. The CMT cell is a derivative of the COS cell in which expression of the T-antigen is under the control of a metallothionein promoter. Thus the accumulation of T-antigen in the cell is further enhanced by the addition of heavy metal ion in the medium. The adenylyl cyclase cDNA construct (113-72) is cloned into pcDNA 1, a CMV promoter-driven expression vector with an SV40 enhancer-origin of replication element. A crude membrane preparation is prepared from the transfected CMT cells and a variety of agents known to stimulate adenylyl cyclase are examined (Table I). There is a dose-dependent relationship between the amount of plasmid transfected and the resultant adenylyl cyclase activity, both basal and forskolin-stimulated (0-30 µg per transfection). When the plasmid without insert is transfected, the resultant adenylyl cyclase activity is slightly (∼15%) lower than that of mock-transfected cells. All activities are enhanced several-fold in the transfected cells, as compared to controls, with the forskolin-stimulated activity showing the greatest increase in activity (>6-fold increase over control).
In an example of such expression, twenty µg of the purified plasmid pcDNA 113-72 are transfected into the monkey kidney CMT cells using a modified method of Golub et al. (17). Briefly, the cells are grown to 80% confluence in Dulbecco's modification of Eagle's Medium, 10% fetal calf serum, 2 mM glutamine, 4.5 mg/ml glucose, 10 µg/ml streptomycin sulfate and 60 µg/ml penicillin K. After washing with PBS twice, 0.5 ml of trypsin solution is added. The cells are incubated for 10 minutes, and 20 µg of purified plasmid resuspended in 4 ml of DMEM containing 400 µg/ml DEAE dextran and 0.1 mM chloroquine is added. The cells are incubated for four hours followed by 10% DMSO shock for two minutes. After washing with PBS twice, the induction media, which contains 10% fetal calf serum (FCS), 2 mM glutamine, […], 2 mM penicillin and streptomycin, and 1 µM CdCl₂, 0.1 µM ZnCl₂ in DMEM, is added. The plate is incubated at 37 °C for 72 hours before harvesting.
The biochemical property of this cardiac adenylyl cyclase is examined in a transient expression system using CMT cells (a derivative of COS cells). CMT cells contain T-antigen driven by a methalothionein promoter in the genome. Thus by induction with heavy metal ion in the medium, CMT cells could produce more T-antigen than COS cells. A 4.3 kb fragment of the adenylyl cyclase cDNA (#113-72) containing the whole coding sequence is inserted into the pcDNA1 plasmid described above (Invitrogen).
The adenylyl cyclase activity of a cell transfected with the expression vector pcDNA1 carrying cardiac adenylyl cyclase cDNA is assayed as follows. The transfected CMT cells are washed twice with PBS and scraped in three ml of cold buffer containing 50 mM Tris (pH8.0), 1 mM EDTA, 10 µM PMSF (phenylmethylsulfonylfluoride), 100 U leupeptin, and 50 U egg white trypsin inhibitor (ETI) on ice. The membrane is homogenated in Polytron™ (setting 6 for 10 seconds) and is centrifuged at 800 x g for 10 minutes at 4 °C. The supernatant is further centrifuged at […] for 40 minutes at 4 °C. The resultant pellet is resuspended in 50 mM Tris (pH 8.0), 1 mM EDTA, 1 µM PMSF, 50 U leupeptin, and 50 U ETI, to a concentration of 5 µg/µl. This crude membrane solution is used for the adenylyl cyclase asssay. […]

[3] = tested on: untransfected CMT cells; assay: Adenylyl cyclase activity assay, membrane from untransfected CMT cells (control); type: biochemical, monkey; conditions: Control (untransfected CMT cell membrane), ± standard error
Procedure: The adenylyl cyclase activity of a cell transfected with the expression vector pcDNA1 carrying cardiac adenylyl cyclase cDNA is assayed as follows. The transfected CMT cells are washed twice with PBS and scraped in three ml of cold buffer containing 50 mM Tris (pH8.0), 1 mM EDTA, 10 µM PMSF (phenylmethylsulfonylfluoride), 100 U leupeptin, and 50 U egg white trypsin inhibitor (ETI) on ice. The membrane is homogenated in Polytron™ (setting 6 for 10 seconds) and is centrifuged at 800 x g for 10 minutes at 4 °C. The supernatant is further centrifuged at 100 x g for 40 minutes at 4 °C. The resultant pellet is resuspended in 50 mM Tris (pH 8.0), 1 mM EDTA, 1 µM PMSF, 50 U leupeptin, and 50 U ETI, to a concentration of 5 µg/µl. This crude membrane solution is used for the adenylyl cyclase asssay.
The adenylyl cyclase assay is performed by the method of Salomon (21). Briefly, the crude membranes from CMT cells are resuspended in a solution containing 1 mM creatine phosphate, 8 µg/ml creatine phophokinase, 4 mM HEPES (pH 8.0), 2 mM MgCl₂, 0.1 mM c-AMP, 0.1 mM ATP, and ³²P-ATP (0.2-5 µCi/assay tube). […] Cyclic-AMP is separated from ATP by passing through Dowex and alumina columns, and the radioactivity is counted by scintillation counter. The protein concentration of the membranes used are measured by Bradford's method (22), with bovine serum albumin as a standard. […]

[4] = target: T1, type V adenylyl cyclase; assay: Calcium/calmodulin sensitivity of adenylyl cyclase activity, transfected CMT cell membranes; type: biochemical, canine; conditions: 30 µg crude CMT cell membrane; 0-1 mM calcium (CaCl₂); membranes washed with EGTA
Procedure: Figure 6 depicts the effect of calcium on type V adenylyl cyclase activity. Adenylyl cyclase activity (CMT cells transfected with pcDNA113-72 or cardiac sarcolemma) is measured in the presence of increasig concentrations of calcium (0-1 mM). Cardiac sarcolemma is prepared as described (26). Both membrane preparations are first washed with EGTA prior to assay (27). Similar results are obtained in three independent experiments. The efficiency of transfection is confirmed by at least a 4-fold increase in both basal and forskolin-stimulated adenylyl cyclase activities over control.
The calcium/calmodulin sensitivity of this protein is also assessed. […] Thirty µg of the crude CMT cell membrane preparation are incubated in the presence of increasing concentrations of CaCl₂. […] The adenylyl cyclase activity also is assessed in canine cardiac sarcolemma.

[5] = 10 mM sodium fluoride, 100 µM GTPγS

T2 sequence (P30803 82-1265 limits assumed): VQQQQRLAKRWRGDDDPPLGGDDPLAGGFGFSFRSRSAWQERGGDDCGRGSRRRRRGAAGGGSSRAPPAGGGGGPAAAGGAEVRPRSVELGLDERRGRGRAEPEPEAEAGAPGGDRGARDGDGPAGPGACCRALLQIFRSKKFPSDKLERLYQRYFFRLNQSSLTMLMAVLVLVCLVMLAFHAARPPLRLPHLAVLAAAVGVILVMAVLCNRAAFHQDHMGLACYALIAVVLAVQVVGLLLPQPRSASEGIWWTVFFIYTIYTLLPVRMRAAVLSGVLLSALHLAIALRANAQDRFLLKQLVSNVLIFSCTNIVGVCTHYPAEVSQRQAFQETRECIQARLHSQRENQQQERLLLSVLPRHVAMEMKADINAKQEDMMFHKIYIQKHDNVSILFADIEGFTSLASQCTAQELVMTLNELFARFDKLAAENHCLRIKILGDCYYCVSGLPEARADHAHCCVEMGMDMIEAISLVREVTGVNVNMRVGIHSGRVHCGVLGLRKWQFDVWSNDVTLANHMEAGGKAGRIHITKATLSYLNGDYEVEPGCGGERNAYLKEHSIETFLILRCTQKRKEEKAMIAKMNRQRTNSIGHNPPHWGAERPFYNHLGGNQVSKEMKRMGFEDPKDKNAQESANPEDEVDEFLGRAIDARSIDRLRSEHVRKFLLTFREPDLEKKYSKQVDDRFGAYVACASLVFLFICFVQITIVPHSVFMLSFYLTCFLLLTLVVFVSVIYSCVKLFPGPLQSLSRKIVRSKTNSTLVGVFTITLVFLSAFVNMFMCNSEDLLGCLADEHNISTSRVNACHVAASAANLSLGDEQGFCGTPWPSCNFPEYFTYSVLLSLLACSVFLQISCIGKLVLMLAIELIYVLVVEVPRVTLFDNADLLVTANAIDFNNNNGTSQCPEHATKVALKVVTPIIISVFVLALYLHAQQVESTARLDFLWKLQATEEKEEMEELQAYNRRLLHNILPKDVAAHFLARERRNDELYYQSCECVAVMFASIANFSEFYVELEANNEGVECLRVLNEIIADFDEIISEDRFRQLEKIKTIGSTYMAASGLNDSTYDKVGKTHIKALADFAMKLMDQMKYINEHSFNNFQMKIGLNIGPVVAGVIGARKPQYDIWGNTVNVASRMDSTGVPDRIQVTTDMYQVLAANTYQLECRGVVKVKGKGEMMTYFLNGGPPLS
T1 sequence (P30803 82-1265 limits assumed): as above

`Nc1ncnc2c1ncn2[C@H]1C[C@H](OP(=O)(O)O)[C@@H](CO)O1` [2'-deoxy-3'-AMD] was tested, and the “order of potency of inhibition of adenylyl cyclase activity” value [1] was 2'-deoxy-3'-AMD>3'-AMP>2'-deoxyadenosine>adenosine.
With `Nc1ncnc2c1ncn2[C@H]1C[C@H](O)[C@@H](CO)O1` [2'-deoxyadenosine] the “order of potency of inhibition of adenylyl cyclase activity” value [1] was 2'-deoxy-3'-AMD>3'-AMP>2'-deoxyadenosine>adenosine.
`Nc1ncnc2c1ncn2[C@@H]1O[C@H](CO)[C@@H](OP(=O)(O)O)[C@H]1O` [3'-AMP] was tested, and the “order of potency of inhibition of adenylyl cyclase activity” value [1] was 2'-deoxy-3'-AMD>3'-AMP>2'-deoxyadenosine>adenosine.
`Nc1nc2c(ncn2[C@@H]2O[C@H](COP(=O)(O)OP(=O)(O)OP(O)(O)=S)[C@@H](O)[C@H]2O)c(=O)[nH]1` [GTPγS] was tested, and the “adenylyl cyclase activity, GTPγS” value ([2]; Transfected CMT cell membranes, 100 µM GTPγS, ± standard error) was 84±12.5, the “fold more stimulation than the control” value [2, 5] was 2.8 fold and the “adenylyl cyclase activity, GTPγS” value ([3]; 100 µM GTPγS) was 30± 4.5.
With `[F-].[Na+]` [NaF, sodium fluoride] the “adenylyl cyclase activity, NaF” value ([2]; Transfected CMT cell membranes, 10 mM sodium fluoride, ± standard error) was 41±4.7, the “fold more stimulation than the control” value [2, 5] was 2.7 fold and the “adenylyl cyclase activity, NaF” value ([3]; 10 mM sodium fluoride) was 15±3.1.
In the case of `Nc1ncnc2c1ncn2[C@@H]1O[C@H](CO)[C@@H](O)[C@H]1O` [adenosine], the “order of potency of inhibition of adenylyl cyclase activity” value [1] is reported as 2'-deoxy-3'-AMD>3'-AMP>2'-deoxyadenosine>adenosine.
CaCl₂ [calcium] was tested, and the “effect of calcium on adenylyl cyclase activity” value [4] was “inhibited in a concentration-dependent manner”.
manganese was tested, and the “adenylyl cyclase activity stimulated over the control” value ([2]; in the presence of 5 mM manganese) was “more than 10 fold”.
